This is an account of results in PMC11477289, “Low-Basicity 5-HT6 Receptor Ligands from the Group of Cyclic Arylguanidine Derivatives and Their Antiproliferative Activity Evaluation” (International Journal of Molecular Sciences, 2024).

In brackets after ≈: the same amount, converted by molar mass.

The target in data set [1] is T1, human 5-HT6 (Homo sapiens, UniProt P50406).
T1 construct: expressed in transfected cells
Description: [3H]-LSD radioligand binding assay, 5-HT6R. The note with it: HEK293 expressing human 5-HT6R, read-out: 5-HT6 Ki. The method, then:
Next, the ligands’ affinity for the 5-HT6 receptors was evaluated in the [^3H]-LSD radioligand binding assay. Experiments were performed in a stable HEK293 cell line expressing the human 5-HT6R.
The pellets were stored at −80 °C.

For data set [2], the target named is T1, human 5-HT6. In words: Functional evaluation, cAMP (LANCE Ultra) in HEK293 cells. The note with it: antagonist mode, cAMP induced by 5-CT 1000 nM. The format is cell-based. On the technique in general: Time-resolved FRET reads energy transfer from a long-lived donor to a nearby acceptor.
Description: The supernatant was aspirated, and the cell pellet was resuspended in a stimulation buffer (1 × HBSS, 5 mM HEPES, 0.5 mM IBMX, 0.1% BSA).
The functional properties of compounds were evaluated using the LANCE Ultra cAMP detection kit (PerkinElmer). […] To investigate the antagonist activity, dopamine for D2R was added at a concentration of 10 nM, and for cell lines with 5-HT7R, 5-HT1AR, or 5-HT6R, 5-CT concentrations were adjusted, being, respectively, 10, 100, and 1000 nM, according to the receptor subtype.
For the quantification of cAMP levels, cells (5 µL) were incubated with a 5 µL mixture of necessary compounds for 30 min at room temperature in a 384-well white opaque microtiter plate (PerkinElmer). After incubation, the reaction was stopped, and cells were lysed by the addition of a 10 µL working solution (5 µL Eu-cAMP and 5 µL ULight-anti-cAMP). The assay plate was incubated for 1 h at room temperature. The time-resolved fluorescence resonance energy transfer (TR-FRET) signal was detected by an Infinite M1000 Pro (Tecan, Männedorf, Switzerland) using instrument settings from the LANCE Ultra cAMP detection kit manual.
The nature of data set [3]: Chromatographic hydrophobicity index on C18 column (lipophilicity). The format is physicochemical.
Data set [4] is described as follows: Metabolic stability in mouse liver microsomes (MLMs). The note with it: 120 min; for remaining at 2 h, 50 µM: mouse, mouse liver microsomes. The format is in vitro ADME. The method, then: The metabolic stability of PR 68, PR 73, and PR 76 were determined in mouse liver microsomes (MLMs).
The metabolic stability of PR 68 was estimated with mouse liver microsomes (MLMs) (Sigma-Aldrich, St. Louis, MO, USA). […] Cold methanol was then added to the reaction mixture to quench the reaction. The precipitated MLMs were centrifuged, and the supernatant was analyzed by LC/MS with a Waters ACQUITY™ TQD system with a TQ detector (Waters, Milford, USA).
(1 picture or pasted object on this page, not shown here)

A short description of data set [5]: Fish embryo toxicity (FET) test, OECD 236. The note with it: zebrafish (Danio rerio), in vivo, after 96 h of intoxication. Here is the method: To determine the toxicity of the compounds [66], the fish embryo toxicity (FET) test was performed on zebrafish (Danio rerio) according to OECD Test 236. The collected embryos were transferred to a Petri dish with an E3 medium, consisting of 5 mM NaCl; 0.33 mM MgCl2; 0.33 mM CaCl2; and 0.17 mM KCl, and placed in 6-well plates, 10 embryos per well. Stock solutions were prepared in DMSO. The range of different concentrations of the solutions was prepared by dissolving stock solutions in the E3 medium each time directly before addition to the wells. The solutions were changed once daily, and the embryos were maintained in the incubator at 28.5 °C. At the end of the exposure period (96 hpf—hours postfertilization), acute toxicity was determined based on a positive outcome in any of the four visual indicators of lethality, including the coagulation of fertilized eggs, lack of somite formation, lack of detachment of the tailbud from the yolk sac, and lack of heartbeat. The value of LD50 was calculated. Heartbeats were recorded to observe cardiotoxic effects. A dose–response curve was generated using Prism 8.0.1 (GraphPad Software).
Figure 3 (A) Toxicity of PR 68 and PR 73 in vivo in Danio reiro embryo toxicity test. […] Cardiotoxicity of (B) PR 68 and (C) PR 73 measured as heart rate (beats per minute) on 5 dpf Danio rerio larvae, E3—fish embryo growth medium. […]

In another data set the test system is U87MG glioblastoma cells. In words: Antiproliferative activity (MTS), U87MG. The note with it: Homo sapiens, U-87 MG, 72 h, read-out: IC50 Values U87MG.
Data set [6] concerns LN-229 glioblastoma cell line. In words: Antiproliferative activity (MTS), LN-229. The note with it: Homo sapiens, LN-229, 72 h, read-out: IC50 Values LN-229.
A further data set concerns astrocyte cell line PG-4. Description: Activity on normal astrocytes (MTS), PG-4. The note with it: Felis catus, 72 h, read-out: IC50 Values PG-4.
The target of a further data set is 5-HT7b receptor (Homo sapiens, UniProt P34969). In words: [3H]-5-CT radioligand binding assay, 5-HT7.
The next data set has as its target D2L receptor (Homo sapiens, UniProt P14416). Description: [3H]-raclopride radioligand binding assay, D2.
Another data set relates to HEK293. In words: Cytotoxic activity on HEK293. The class given is cell-based. The note with it: Homo sapiens. The source says:
Table 6 Extended receptor affinity study, with functional tests and cytotoxic activity of selected compounds on HEK293. | column: HEK293 / IC50 [µM]

Another data set addresses T2, CYP3A4 (Homo sapiens, UniProt P08684).
T2 construct: purchased Promega
In words: CYP3A4 P450-Glo assay (drug–drug interactions). The format is biochemical. The note with it: 0.01–25 µM. The method, then:
(§1) The potential risk of drug–drug interactions (DDIs) was examined in luminescence-based CYP3A4 and CYP2D6 P450-Glo assays (Promega, Madison, WI, USA) (Figure 2A,B).
(§2) The influence on CYP3A4 and CYP2D6 activity by ligands was analyzed with luminescent CYP3A4 P450-Glo and CYP2D6 P450-Glo^TM (Madison, WI, USA). The compounds were tested in triplicate. The bioluminescence signal was measured with a microplate reader, Spark Cyto (Tecan, Männedorf, Switzerland), in the luminescence mode. Compounds were tested in triplicate in the range of 0.01–25 µM for both isoforms’ P450 cytochrome. KE and QD were used as the reference compounds for CYP3A4 and CYP2D6, respectively.

A further data set concerns the target T3, CYP2D6 (Homo sapiens, UniProt P10635).
T3 construct: purchased Promega
In words: CYP2D6 P450-Glo assay (drug–drug interactions). The class given is biochemical. The note with it: 0.01–25 µM. The method, then: as §1, §2

The subject of data set [7] is HepG2 human hepatoma cell line. Description: Hepatotoxicity, MTS assay. The class given is cell-based. The note with it: 1–10 µM, 48 h. The method, then:
The safety profile was estimated in the hepatotoxicity assay in the hepatoma HepG2 cell line (Figure 2B).
Hepatotoxicity was evaluated employing an MTS assay with a HepG2 human hepatoma cell line (ATCC: HB-8065). In brief, the cells were incubated for 48 h in 96-well plates with PR 68 (concentration range: 1–100 μM), or doxorubicin (DX, 1 µM; Sigma-Aldrich), which served as a control. Compounds were tested in a single experiment in quadruplicate. The absorbance in the MTS assay was measured by the Spark Cyto microplate reader (Tecan, Männedorf, Switzerland).

The target in another data set is 5-HT5A receptor (Homo sapiens, UniProt P47898). In words: [3H]-LSD radioligand binding assay, 5-HT5A.
Another data set relates to HSA and AGP (24:1). Description: Plasma protein binding, TRANSIL XL PPB assay. The note with it: human, TRANSIL XL PPB assay: HSA and AGP in a 24:1 ratio.

T1 sequence (P50406 whole entry): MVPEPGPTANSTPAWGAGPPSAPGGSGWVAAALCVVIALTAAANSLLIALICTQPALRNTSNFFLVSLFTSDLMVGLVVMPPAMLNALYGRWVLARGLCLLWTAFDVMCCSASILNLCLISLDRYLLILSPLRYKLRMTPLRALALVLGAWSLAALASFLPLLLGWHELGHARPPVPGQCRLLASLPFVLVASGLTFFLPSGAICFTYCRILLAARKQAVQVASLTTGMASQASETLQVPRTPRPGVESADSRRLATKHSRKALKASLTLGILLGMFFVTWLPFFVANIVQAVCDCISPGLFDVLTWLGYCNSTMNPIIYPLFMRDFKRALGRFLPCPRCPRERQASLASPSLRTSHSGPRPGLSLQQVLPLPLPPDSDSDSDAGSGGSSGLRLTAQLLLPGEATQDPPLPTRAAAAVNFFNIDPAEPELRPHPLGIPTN
Sequence of D2L receptor (P14416 whole entry): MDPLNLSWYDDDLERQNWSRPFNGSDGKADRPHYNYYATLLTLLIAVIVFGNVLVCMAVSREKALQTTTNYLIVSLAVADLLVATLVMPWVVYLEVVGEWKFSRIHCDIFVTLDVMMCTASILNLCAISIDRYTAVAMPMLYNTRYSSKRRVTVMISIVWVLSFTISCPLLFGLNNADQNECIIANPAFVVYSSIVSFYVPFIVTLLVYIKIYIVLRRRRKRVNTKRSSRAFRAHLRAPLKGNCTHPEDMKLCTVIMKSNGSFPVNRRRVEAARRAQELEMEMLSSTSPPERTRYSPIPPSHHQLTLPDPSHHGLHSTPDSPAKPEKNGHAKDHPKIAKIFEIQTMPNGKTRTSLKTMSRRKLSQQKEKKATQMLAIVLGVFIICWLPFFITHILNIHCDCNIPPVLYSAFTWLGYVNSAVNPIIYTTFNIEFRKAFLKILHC
Sequence of 5-HT7b receptor (P34969 1-432 limits assumed): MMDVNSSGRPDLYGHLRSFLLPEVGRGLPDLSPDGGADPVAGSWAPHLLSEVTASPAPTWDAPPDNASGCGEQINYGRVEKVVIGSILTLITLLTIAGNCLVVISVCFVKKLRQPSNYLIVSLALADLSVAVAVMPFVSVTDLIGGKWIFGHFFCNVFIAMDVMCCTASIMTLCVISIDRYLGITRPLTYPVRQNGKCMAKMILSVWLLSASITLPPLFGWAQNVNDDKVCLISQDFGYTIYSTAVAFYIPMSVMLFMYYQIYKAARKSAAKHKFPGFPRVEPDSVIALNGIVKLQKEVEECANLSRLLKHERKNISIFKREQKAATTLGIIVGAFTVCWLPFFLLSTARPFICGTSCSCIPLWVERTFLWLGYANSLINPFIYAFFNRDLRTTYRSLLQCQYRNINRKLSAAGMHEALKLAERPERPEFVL
T3 sequence (P10635 whole entry): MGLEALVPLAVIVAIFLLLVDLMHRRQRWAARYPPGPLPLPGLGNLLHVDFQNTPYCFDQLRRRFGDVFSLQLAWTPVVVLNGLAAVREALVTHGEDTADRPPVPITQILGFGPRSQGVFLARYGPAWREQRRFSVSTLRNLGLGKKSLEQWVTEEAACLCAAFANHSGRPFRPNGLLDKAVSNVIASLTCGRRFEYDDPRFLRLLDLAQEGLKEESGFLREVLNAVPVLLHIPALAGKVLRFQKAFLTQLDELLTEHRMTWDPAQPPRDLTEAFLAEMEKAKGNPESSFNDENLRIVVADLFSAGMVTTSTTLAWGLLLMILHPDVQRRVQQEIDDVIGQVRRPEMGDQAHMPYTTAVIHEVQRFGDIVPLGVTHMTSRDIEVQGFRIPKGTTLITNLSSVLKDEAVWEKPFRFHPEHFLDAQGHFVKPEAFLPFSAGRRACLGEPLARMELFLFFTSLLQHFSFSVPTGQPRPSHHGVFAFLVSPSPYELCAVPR
Sequence of 5-HT5A receptor (P47898 whole entry): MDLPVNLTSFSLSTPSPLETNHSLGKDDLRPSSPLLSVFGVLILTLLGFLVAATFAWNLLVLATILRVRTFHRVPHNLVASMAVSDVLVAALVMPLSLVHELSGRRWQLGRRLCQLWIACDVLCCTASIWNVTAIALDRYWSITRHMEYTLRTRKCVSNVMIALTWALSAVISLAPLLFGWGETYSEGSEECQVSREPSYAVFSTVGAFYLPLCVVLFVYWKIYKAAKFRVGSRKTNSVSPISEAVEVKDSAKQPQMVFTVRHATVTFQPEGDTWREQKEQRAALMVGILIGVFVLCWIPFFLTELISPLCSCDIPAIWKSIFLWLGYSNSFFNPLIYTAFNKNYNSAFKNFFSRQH
T2 sequence (P08684 whole entry): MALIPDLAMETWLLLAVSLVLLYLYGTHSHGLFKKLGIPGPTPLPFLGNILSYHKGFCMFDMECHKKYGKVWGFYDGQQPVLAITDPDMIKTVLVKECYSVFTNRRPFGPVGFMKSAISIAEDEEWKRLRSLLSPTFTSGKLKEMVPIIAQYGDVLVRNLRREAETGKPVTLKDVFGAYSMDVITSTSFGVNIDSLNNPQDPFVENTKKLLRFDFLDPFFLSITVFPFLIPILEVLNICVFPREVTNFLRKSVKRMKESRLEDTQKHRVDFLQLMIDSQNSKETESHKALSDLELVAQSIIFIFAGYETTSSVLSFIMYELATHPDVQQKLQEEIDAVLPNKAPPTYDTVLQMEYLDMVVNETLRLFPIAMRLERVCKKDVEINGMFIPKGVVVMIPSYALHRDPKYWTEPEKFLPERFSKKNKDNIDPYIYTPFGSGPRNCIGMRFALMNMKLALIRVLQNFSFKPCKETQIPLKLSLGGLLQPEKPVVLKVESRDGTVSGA

Regarding `CC1NC(NS(=O)(=O)c2cccc3ccccc23)=Nc2cccc(F)c21` (centres unmarked) [PR 73, N -(5-fluoro-4-methyl-3,4-dihydroquinazolin-2-yl)naphthalene-1-sulfonamide], the Ki on human 5-HT6 [1] was 0.043 ± 0.011 µM; on 5-HT7b receptor it was 35.8 µM; at D2L receptor, 146 µM. Also, the Kb at human 5-HT6 [2] stood at 0.134 µM. Further, the “CHI C18 pH 2.6” value in data set [3] amounted to 94.6. In addition, the “CHI C18 pH 7.4” value in data set [3] stood at 94.9. The “CHI C18 pH 10.5” value in [3] was 96.5. In [4], this compound gave an amount remaining at 2 h, 50 µM of 24.6%. This compound also yielded an LC50 at 96 h in data set [5] of 10.2 µg/mL (≈ 27.5 µM). For the same compound, the IC50 (in the data set on U87MG glioblastoma cells; in data set [6]; in the data set on astrocyte cell line PG-4) was greater than 25 µM throughout.
On to `CC1NC(NS(=O)(=O)c2cccc3ccccc23)=Nc2cccc(Cl)c21` (centres unmarked) [PR 68, N -(5-chloro-4-methyl-3,4-dihydroquinazolin-2-yl)naphthalene-1-sulfonamide], for which the Ki was 0.037 ± 0.008 µM on human 5-HT6 [1], 1.11 µM at 5-HT5A receptor, 19.3 µM at 5-HT7b receptor and 622 µM on D2L receptor. On human 5-HT6 [2], this compound displayed a Kb of 0.079 µM. Further, the IC50 was 81.8 µM in the data set with HEK293, greater than 25 µM in the data set on U87MG glioblastoma cells, greater than 25 µM in [6] and greater than 25 µM in the data set with astrocyte cell line PG-4. Moreover, the “CHI C18 pH 2.6” value in data set [3] came out at 101.4. Also, the “CHI C18 pH 7.4” value in data set [3] is recorded as 99.2. Further, the “CHI C18 pH 10.5” value in [3] worked out at 103.0. The metabolized in data set [4] is on record as 49%. This compound also yielded a share remaining at 2 h, 50 µM in [4] of 51.1%. In addition, on CYP3A4, the “drug–drug interactions, CYP3A4 activity” value is “should not exhibit drug–drug interactions”. Further, the “drug–drug interactions, CYP2D6 activity” value at CYP2D6 is given as “should not exhibit drug–drug interactions”. Also, the “hepatotoxicity, HepG2 viability” value in data set [7] was “did not exhibit hepatotoxic properties”. Further, the LC50 at 96 h in data set [5] came out at 7.82 µg/mL (≈ 20.3 µM). The Kd at 12 min, 20 µM with HSA and AGP (24:1) is 1.4 µM. Further, the free fraction (fraction unbound) at 12 min, 20 µM in the data set with HSA and AGP (24:1) is 0.002.

By Ki is commonly meant the equilibrium dissociation constant of an inhibitor or competing ligand from its target. As a reminder, the Kb is the affinity of an antagonist, worked out from how it opposes an agonist. The low end stands for a more potent antagonist, the high end for a less potent antagonist. The share remaining is the share of the starting amount still present when the sample was taken. A high value points to greater stability. The LC50 is the concentration that kills 50% of the test population. Low values mean greater toxicity, high ones lower toxicity. The IC50 is the concentration needed to halve the response being measured. As a reminder, the Kd is the concentration at which binding is half-saturated. The term fraction unbound denotes the share of the substance not bound to proteins or other matrix.
